Reference: patent US12441733B2, “Substituted 2,4-dioxotetrahydropyrimidines as intermediates in the synthesis of bruton's tyrosine kinase inhibitors” (Novartis AG, priority 2018, dated 2025)

Molecular target: T1, IKZF3-GFP (Homo sapiens, UniProt Q96SW2+Q9UKT9)
T1 construct: expressed in transfected cells; host or cells: HEK293A (Invitrogen R70507), lentiviral transduction with pLenti6-IKZF3-GFP-Ires-RFP, blasticidin selection
Assay: IKZF3-GFP protein abundance flow cytometry assay in HEK293A cells
Assay type: cell-based
Conditions: HEK293A IKZF3-GFP-iresRFP cells, 24 h; for DC50: GFP signal by flow cytometry; for IKZF3 deg Amax: % protein remaining at maximum degradation
Method: BTK-GFP and IKZF3-GFP protein abundance flow cytometry assay in HEK293A cells:
Degradation of BTK or IKZF3 was measured in HEK293A cells (Invitrogen R70507) expressing either BTK-GFP and RFP or IKZF3-GFP and RFP from a stably integrated bicistronic BTK-GFP-iresRFP or IKZF3-GFP-iresRFP construct, respectively. Reduction of the GFP signal measured by flow cytometry served as readout for BTK or IKZF3 degradation after degrader treatment.
By analogy the bicistronic pLenti6-IKZF3-GFP-iresRFP was engineered by gateway cloning of IKZF3 from a pENTR221-IKZF3(STOP-Leu) construct into the previously described pLenti6-DEST-GFP-Ires-RFP vector using the LR Clonase kit (Invitrogen 11791-019) according to the manufacturer's manual. All vectors described have been sequenced for verification.
ii) Engineering of Stably Expressing 293A BTK-GFP-Ires-RFP and IKZF3-GFP-Ires-RFP Sensor Cells
293A BTK-GFP-Ires-RFP and IKZF3-GFP-ires-RFP sensor cells were generated by lentiviral vector transduction using the pLenti6-BTK-GFP-Ires-RFP or pLenti6-IKZF3-GFP-Ires-RFP sensor construct described before. Lentiviral particles were produced in HEK293FT cells (Invitrogen R70007) by co-transfection of 500 ng pLenti6-BTK-GFP-ires-RFP or pLenti6-IKZF3-GFP-Ires-RFP, 500 ng delta8.71 and 200 ng pVSVG diluted in 100 μl OptiMEM serum free medium (Invitrogen #11058-021) that was mixed after 5 min preincubation with 3 μl of Lipofectamine2000 (Invitrogen #11668-019) in 97 μl OptiMEM serum free medium. The mix was incubated for another 20 min at RT and then added on 1 ml of a freshly prepared suspension of HEK293FT cells in a well of a 6-well plate (concentration 1.2×10^6 cells/ml). 1 day after transfection, the medium was replaced with 1.5 ml of complete growth medium (DMEM high Glucose+10% FCS+1% L-Glutamine+1% NEAA+1% NaPyr.). 48 h post transfection supernatant containing viral transducing particles was collected and frozen at −80° C.
Two days before transduction with viral particles 1×10^5 HEK293A cells (Invitrogen R70507) were seeded in 2 ml growth medium in a well of a 6-well plate. Infection was performed with 90 μl of collected supernatant containing viral transducing particles in 1 ml medium including 8 μg/ml polybrene. 24 h post infection, stably transfected cells were selected with blasticidin at a concentration of 8 μg/ml.
Iii) Quantitative BTK-GFP and IKZF3-GFP Abundance Measurements
Stable HEK293A-BTK-GFP-iresRFP cells were maintained in complete growth medium (DMEM high Glucose+10% FCS+1% L-Glutamine+1% NEAA+1% NaPyr.) with passaging performed twice per week. On Day 0, HEK293A-BTK-GFP-iresRFP or HEK293A-IKZF3-GFP-iresRFP and HEK293A-iresRFP cells were seeded at 10,000 cells/well in a 96-well microtiter plate in 260 μl complete medium. On Day 1, cells were treated in duplicate with 10-point 1:3 dilution series of compound using the HP D300 Digital Dispenser (Tecan). DMSO concentrations were normalized across the plate to 0.1%. On Day 2, after 24 h of incubation at 37° C., treatment media was discarded, cells rinsed with 100 μl/well PBS and then detached using 40 μl trypsin/well for 5 min. Trypsin was neutralized with 100 μl/well PBS+20% FCS). Flow cytometry was performed on the samples using the BD FACS CANTO II (Becton Dickinson). Cell identification was then performed using forward (FSC) vs. side scatter (SSC) plots. […] Median GFP values for 5,000 single cells are used to determine BTK levels. Median GFP values from HEK293A-iresRFP are used as a background signal and thus defining 0% BTK signal. Median GFP values from DMSO treated HEK293A-BTK-GFP-iresRFP or HEK293A-IKZF3-GFP-iresRFP are used to define 100% BTK signal for subsequent DC50 curves (concentration at 50% BTK degradation).

T1 sequence (Q9UKT9 whole entry): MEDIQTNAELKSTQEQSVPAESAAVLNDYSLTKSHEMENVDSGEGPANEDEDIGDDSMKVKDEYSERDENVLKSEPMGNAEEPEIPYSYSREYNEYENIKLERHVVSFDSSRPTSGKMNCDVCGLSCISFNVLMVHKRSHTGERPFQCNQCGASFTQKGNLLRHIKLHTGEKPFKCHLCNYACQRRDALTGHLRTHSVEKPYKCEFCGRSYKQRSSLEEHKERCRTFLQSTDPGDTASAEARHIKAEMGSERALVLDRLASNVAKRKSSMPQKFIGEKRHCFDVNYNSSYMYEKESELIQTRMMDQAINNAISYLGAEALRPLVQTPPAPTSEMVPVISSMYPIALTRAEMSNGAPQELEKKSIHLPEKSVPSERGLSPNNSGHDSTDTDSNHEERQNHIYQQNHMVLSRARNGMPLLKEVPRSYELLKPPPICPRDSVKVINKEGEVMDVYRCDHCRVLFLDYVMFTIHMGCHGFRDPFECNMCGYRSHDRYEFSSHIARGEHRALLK
T1 sequence (Q96SW2 whole entry): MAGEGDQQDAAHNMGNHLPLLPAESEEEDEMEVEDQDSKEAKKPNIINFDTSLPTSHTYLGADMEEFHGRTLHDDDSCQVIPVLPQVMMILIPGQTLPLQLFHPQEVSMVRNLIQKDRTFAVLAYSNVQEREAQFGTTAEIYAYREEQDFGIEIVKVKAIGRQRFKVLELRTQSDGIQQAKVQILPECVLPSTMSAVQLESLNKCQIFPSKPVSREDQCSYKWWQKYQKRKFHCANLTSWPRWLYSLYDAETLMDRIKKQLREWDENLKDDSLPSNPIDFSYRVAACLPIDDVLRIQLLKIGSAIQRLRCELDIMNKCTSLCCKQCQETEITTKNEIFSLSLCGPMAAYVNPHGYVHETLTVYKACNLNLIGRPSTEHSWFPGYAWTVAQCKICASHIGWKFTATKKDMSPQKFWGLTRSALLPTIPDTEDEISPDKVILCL
T1 sequence (Q16531 whole entry partner): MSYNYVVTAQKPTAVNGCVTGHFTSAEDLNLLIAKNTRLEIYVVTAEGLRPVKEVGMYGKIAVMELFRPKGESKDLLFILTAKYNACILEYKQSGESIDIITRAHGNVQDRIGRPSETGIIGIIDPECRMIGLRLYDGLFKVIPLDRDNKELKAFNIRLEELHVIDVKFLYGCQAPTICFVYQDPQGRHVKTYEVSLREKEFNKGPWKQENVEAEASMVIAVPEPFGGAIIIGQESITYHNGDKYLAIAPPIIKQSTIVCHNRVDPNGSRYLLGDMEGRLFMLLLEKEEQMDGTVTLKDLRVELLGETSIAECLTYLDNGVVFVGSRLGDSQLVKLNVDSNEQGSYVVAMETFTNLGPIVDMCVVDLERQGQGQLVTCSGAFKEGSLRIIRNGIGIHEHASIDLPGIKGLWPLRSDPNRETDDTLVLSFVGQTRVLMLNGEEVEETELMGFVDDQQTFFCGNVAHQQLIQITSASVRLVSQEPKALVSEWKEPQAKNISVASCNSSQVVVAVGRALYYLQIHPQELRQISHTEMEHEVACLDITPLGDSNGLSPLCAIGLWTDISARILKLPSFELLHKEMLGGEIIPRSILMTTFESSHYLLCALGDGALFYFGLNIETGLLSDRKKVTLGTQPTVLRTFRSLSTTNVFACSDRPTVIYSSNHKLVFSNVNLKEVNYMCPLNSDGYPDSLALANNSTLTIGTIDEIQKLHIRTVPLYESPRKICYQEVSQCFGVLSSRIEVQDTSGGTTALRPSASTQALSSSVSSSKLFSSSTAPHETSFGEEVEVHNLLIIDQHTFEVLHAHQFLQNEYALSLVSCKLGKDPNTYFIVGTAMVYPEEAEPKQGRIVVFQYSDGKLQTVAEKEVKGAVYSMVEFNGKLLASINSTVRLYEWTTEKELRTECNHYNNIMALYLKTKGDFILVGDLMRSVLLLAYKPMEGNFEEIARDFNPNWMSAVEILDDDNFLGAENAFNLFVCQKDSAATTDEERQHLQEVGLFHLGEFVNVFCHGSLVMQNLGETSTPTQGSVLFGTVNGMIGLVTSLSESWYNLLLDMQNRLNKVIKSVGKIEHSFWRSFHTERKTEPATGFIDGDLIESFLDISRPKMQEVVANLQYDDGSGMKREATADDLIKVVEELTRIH

SMILES | DC50 [nM] | IKZF3 deg Amax [%]
CCOc1ccc(C(=O)N2CCC3(CCN(Cc4ccc(-c5cc6c(-c7cc(F)cc(NC(=O)c8ccc(C(C)(C)O)cc8F)c7C)ncnc6[nH]5)cc4)CC3)CC2)cc1N1CCC(=O)NC1=O [Compound 4, N-(3-(6-(4-((9-(3-(2,4-Dioxotetrahydropyrimidin-1(2H)-yl)-4-ethoxybenzoyl)-3,9-diazaspiro[5.5]undecan-3-yl)methyl)phenyl)-7H-pyrrolo[2,3-d]pyrimidin-4-yl)-5-fluoro-2-methylphenyl)-2-fluoro-4-(2-hydroxypropan-2-yl)benzamide] | > 1100 | 101.3
Cc1ccc(C(=O)N2CCC3(CCN(CCc4ccc(-c5cc6c(-c7cc(F)cc(NC(=O)c8ccc(C(C)(C)O)cc8F)c7C)ncnc6[nH]5)cc4)CC3)CC2)cc1N1CCC(=O)NC1=O [Compound 5, N-(3-(6-(4-(2-(9-(3-(2,4-Dioxotetrahydropyrimidin-1(2H)-yl)-4-methylbenzoyl)-3,9-diazaspiro[5.5]undecan-3-yl)ethyl)phenyl)-7H-pyrrolo[2,3-d]pyrimidin-4-yl)-5-fluoro-2-methylphenyl)-2-fluoro-4-(2-hydroxypropan-2-yl)benzamide] | > 370 | 103.3
Cc1c(NC(=O)c2ccc(C(C)(C)O)cc2F)cc(F)cc1-c1ncnc2[nH]c(-c3ccc(COC4CCN(CCC5CCN(C(=O)c6ccc(F)c(N7CCC(=O)NC7=O)c6)CC5)CC4)cc3)cc12 [Compound 6, N-(3-(6-(4-(((1-(2(1-(3-(2,4-dioxotetrahydropyrimidin-1(2H)-yl)-4-fluorobenzoyl)piperidin-4-yl)ethyl)piperidin-4-yl)oxyl)methyl)phenyl)-7H-pyrrolo[2,3-d]pyrimidin-4-yl)-5-fluoro-2-methylphenyl)-2-fluoro-4-(2-hydroxypropan-2-yl)benzamide] | > 10000 | 100.8
COc1ccc(C(=O)N2CCC(OC3CCN(Cc4ccc(-c5cc6c(-c7cc(F)cc(NC(=O)c8ccc(C(C)(C)O)cc8F)c7C)ncnc6[nH]5)cc4)CC3)CC2)cc1N1CCC(=O)NC1=O [Compound 8, N-(3-(6-(4-((4-((1-(3-(2,4-dioxotetrahydropyrimidin-1(2H)-yl)-4-methoxybenzoyl)piperidin-4-yl)oxyl)piperidin-1-yl)methyl)phenyl)-7H-pyrrolo[2,3-d]pyrimidin-4-yl)-5-fluoro-2-methylphenyl)-2-fluoro-4-(2-hydroxypropan-2-yl)benzamide] | > 2600 | 103.3
COc1ccc(C(=O)N2CCC3(CCN(Cc4ccc(-c5cc6c(-c7cc(F)cc(NC(=O)c8ccc(C(C)(C)O)cc8F)c7C)ncnc6[nH]5)cc4)CC3)CC2)cc1N1CCC(=O)NC1=O [Compound 9, N-(3-(6-(4-((9-(3-(2,4-Dioxotetrahydropyrimidin-1(2H)-yl)-4-methoxybenzoyl)-3,9-diazaspiro[5.5]undecan-3-yl)methyl)phenyl)-7H-pyrrolo[2.3-d]pyrimidin-4-yl)-5-fluoro-2-methylphenyl)-2-fluoro-4-(2-hydroxypropan-2-yl)benzamide] | > 7800 | 99.1
Cc1c(NC(=O)c2ccc(C(C)(C)O)cc2F)cc(F)cc1-c1ncnc2[nH]c(-c3ccc(CCN4CCC5(CC4)CCN(C(=O)c4cccc(N6CCC(=O)NC6=O)c4)CC5)cc3)cc12 [Compound 12, N-(3-(6-(4-(2-(9-(3-(2,4-Dioxotetrahydropyrimidin-1(2H)-yl)benzoyl)-3,9-diazaspiro[5,5]undecan-3-yl)ethyl)phenyl)-7H-pyrrolo[2,3-d]pyrimidin-4-yl)-5-fluoro-2-methylphenyl)-2-fluoro-4-(2-hydroxypropan-2-yl)benzamide] | > 1100 | 100.4
Cc1c(NC(=O)c2ccc(C(C)(C)O)cc2F)cc(F)cc1-c1ncnc2[nH]c(-c3ccc(CN4CCC5(CC4)CCN(C(=O)c4ccc(F)c(N6CCC(=O)NC6=O)c4)CC5)cc3)cc12 [Compound 14, N-(3-(6-(4-((9-(3-(2,4-Dioxotetrahydropyrimidin-1(2H)-yl)-4-fluorobenzoyl)-3,9-diazaspiro[5.5]undecan-3-yl)methyl)phenyl)-7H-pyrrolo[2.3-d]pyrimidin-4-yl)-5-fluoro-2-methylphenyl)-2-fluoro-4-(2-hydroxypropan-2-yl)benzamide] | > 1100 | 100.2
COc1ccc(C(=O)N2CCC(CN3CCC(Oc4ccc(-c5cc6c(-c7cc(F)cc(NC(=O)c8ccc(C(C)(C)O)cc8F)c7C)ncnc6[nH]5)cc4)CC3)CC2)cc1N1CCC(=O)NC1=O [Compound 19, N-(3-(6-(4-((1-((1-(3-(2,4-Dioxotetrahydropyrimidin-1(2H)-yl)-4-methoxybenzoyl)piperidin-4-yl)methyl)piperidin-4-yl)oxyl)phenyl)-7H-pyrrolo[2,3-d]pyrimidin-4-yl)-5-fluoro-2-methylphenyl)-2-fluoro-4-(2-hydroxypropan-2-yl)benzamide] | > 10000 | 100.5
COc1ccc(C(=O)N2CCC3(CC2)CCN(C(C)(C)Cc2ccc(-c4cc5c(-c6cc(F)cc(NC(=O)c7ccc(C(C)(C)O)cc7F)c6C)ncnc5[nH]4)cc2)CC3)cc1N1CCC(=O)NC1=O [Compound 20, N-(3-(6-(4-(2-(9-(3-(2,4-Dioxotetrahydropyrimidin-1(2H)-yl)-4-methoxybenzoyl)-3,9-diazaspiro[5.5]undecan-3-yl)-2-methylpropyl)phenyl)-7H-pyrrolo[2,3-d]pyrimidin-4-yl)-5-fluoro-2-methylphenyl)-2-fluoro-4-(2-hydroxypropan-2-yl)benzamide] | > 1100 | 93.3
COc1ccc(C(=O)N2CCN(C(=O)N3CCN(Cc4ccc(-c5cc6c(-c7cc(F)cc(NC(=O)c8ccc(C(C)(C)O)cc8F)c7C)ncnc6[nH]5)cc4)CC3)CC2)cc1N1CCC(=O)NC1=O [Compound 22, N-(3-(6-(4-((4-(4-(3-(2,4-Dioxotetrahydropyrimidin-1(2H)-yl)-4-methoxybenzoyl)piperazine-1-carbonyl)piperazin-1-yl)methyl)phenyl)-7H-pyrrolo[2,3-d]pyrimidin-4-yl)-5-fluoro-2-methylphenyl)-2-fluoro-4-(2-hydroxypropan-2-yl)benzamide] | > 10000 | 99.7
Cc1ccc(C(=O)N2CCC3(CCN(Cc4ccc(-c5cc6c(-c7cc(F)cc(NC(=O)c8ccc(C(C)(C)O)cc8F)c7C)ncnc6[nH]5)cc4)CC3)CC2)cc1N1CCC(=O)NC1=O [Compound 27, N-(3-(6-(4-((9-(3-(2,4-Dioxotetrahydropyrimidin-1(2H)-yl)-4-methylbenzoyl)-3,9-diazaspiro[5.5]undecan-3-yl)methyl)phenyl)-7H-pyrrolo[2,3-d]pyrimidin-4-yl)-5-fluoro-2-methylphenyl)-2-fluoro-4-(2-hydroxypropan-2-yl)benzamide] | > 1100 | 102.2
Cc1cc(F)c(C(=O)NCCCCCNCc2ccc(-c3cc4c(-c5cc(F)cc(NC(=O)c6ccc(C(C)(C)O)cc6F)c5C)ncnc4[nH]3)cc2)cc1N1CCC(=O)NC1=O [Compound 29, 5-(2,4-Dioxotetrahydropyrimidin-1(2H)-yl)-2-fluoro-N—(S-((4-(4-(5-fluoro-3-(2-fluoro-4-(2-hydroxypropan-2-yl)benzamido)-2-methylphenyl)-7H-pyrrolo[2,3-d]pyrimidin-6-yl)benzyl)amino)pentyl)-4-methylbenzamide] | > 3300 | 98.6
